# Key:
# Assay type in all cases: in vivo
# [1] = tested on: Rice (Oryza sativa); assay: Test Example 3 paddy field treatment, crop phytotoxicity; conditions: active ingredient 1 kg per hectare, index 0-5; for Herbicidal activity OS (phytotoxicity to rice): paddy field treatment, transplanted rice Koshihikari, wettable powder, 21st day after the dropping; for Herbicidal activity (phytotoxicity) OS: Table 6, paddy field treatment, transplanted rice, 21st day after dropping
# Method: (§1) A plastic pot of 130 cm^2 was filled with paddy soil, and soil puddling was carried out to adjust the submerged depth to 4 cm. Subsequently, seeds of Echinochloa crusgalli, Monochoria vaginalis, Ammannia multiflora and Scirpus juncoides were sowed, and rice (Oryza sative, variety: Koshihikari) of two-leaf period was transplanted by 2 rice plants of 1 stub per pot at a depth of 3 cm. On the 10th day after the transplantation, the wettable powder prepared in Formulation Example 1 was diluted with water such that the amount of the active ingredient became 1 kg per hectare, and then dropped to diffuse on the water surface. On the 21st day after the dropping, observation and evaluation were carried out according to the aforesaid criteria.
# (§2) Herbicidal activity was evaluated based on the following criteria.
# (§3) • 5: herbicidal effect of not less than 90%, or phytotoxicity of 90% or more • 4: herbicidal effect of not less than 70% and less than 90%, or phytotoxicity of 70% or more and less than 90% • 3: herbicidal effect of not less than 50% and less than 70%, or phytotoxicity of 50% or more and less than 70% • 2: herbicidal effect of not less than 30% and less than 50%, or phytotoxicity of 30% or more and less than 50% • 1: herbicidal effect of not less than 10% and less than 30%, or phytotoxicity of 10% or more and less than 30% • 0: herbicidal effect of not less than 0% and less than 10%, or phytotoxicity of 0% or more and less than 10%
# [2] = tested on: Scirpus juncoides; assay: Test Example 3 paddy field treatment; conditions: active ingredient 1 kg per hectare, index 0-5
# Method: as §1, §2, §3
# [3] = tested on: Ammannia multiflora; assay: Test Example 3 paddy field treatment; conditions: active ingredient 1 kg per hectare, index 0-5
# Method: as §1, §2, §3
# [4] = tested on: Monochoria vaginalis; assay: Test Example 3 paddy field treatment; conditions: active ingredient 1 kg per hectare, index 0-5
# Method: as §1, §2, §3
# [5] = tested on: Echinochloa crusgalli; assay: Test Example 3 paddy field treatment; conditions: active ingredient 1 kg per hectare, index 0-5
# Method: as §1, §2, §3
# [6] = tested on: Stellaria media; assay: Test Example 1 upland field foliage treatment; conditions: Table 4, upland field foliage treatment, index 0-5
# Method: (§4) A plastic pot of 130 cm^2 was filled with upland soil. Subsequently, weed seeds of Setaria viridis, Digitaria adscendens, Chenopodium album and Stellaria media, and crop seeds of soybean (Glycine max) and wheat (Triticum aestivum), were sowed and covered with soil of about 1 cm thickness. On the 14th day after the sowing, the wettable powder prepared in Formulation Example 1 was diluted with water such that the amount of the active ingredient became 1 kg per hectare, and then uniformly applied to the plant leaf surfaces. On the 21st day after the application, observation and evaluation were carried out according to the criteria described below.
# as §2, §3
# [7] = tested on: Chenopodium album; assay: Test Example 1 upland field foliage treatment; conditions: Table 4, upland field foliage treatment, index 0-5
# Method: as §4, §2, §3
# [8] = tested on: Setaria viridis; assay: Test Example 1 upland field foliage treatment; conditions: Table 4, upland field foliage treatment, index 0-5
# Method: as §4, §2, §3
# [9] = tested on: Digitaria adscendens; assay: Test Example 1 upland field foliage treatment; conditions: Table 4, upland field foliage treatment, index 0-5
# Method: as §4, §2, §3
# [10] = tested on: wheat (Triticum aestivum); assay: Test Example 1 upland field foliage treatment, crop phytotoxicity; conditions: Table 4, upland field foliage treatment, index 0-5
# Method: as §4, §2, §3
# [11] = tested on: soybean (Glycine max); assay: as above; conditions: Table 4, upland field foliage treatment, index 0-5
# Method: as §4, §2, §3
# [12] = paddy field treatment, wettable powder, 21st day after the dropping
# [13] = Table 6, paddy field treatment, 21st day after dropping
SMILES,Herbicidal activity OS (phytotoxicity to rice) [1],"Herbicidal activity SJ [2, 12]","Herbicidal activity AM [3, 12]","Herbicidal activity MV [4, 12]","Herbicidal activity EC [5, 12]",Herbicidal activity (phytotoxicity) OS [1],"Herbicidal activity SJ [2, 13]","Herbicidal activity AM [3, 13]","Herbicidal activity MV [4, 13]","Herbicidal activity EC [5, 13]",other results
CON=C(Cn1cc(C)c(-c2ccccc2)n1)C(=O)NC(C)c1ccccc1 (centres unmarked) [Compound 31],"0 (herbicidal effect of not less than 0% and less than 10%, or phytotoxicity of 0% or more and less than 10%)","4 (herbicidal effect of not less than 70% and less than 90%, or phytotoxicity of 70% or more and less than 90%)","4 (herbicidal effect of not less than 70% and less than 90%, or phytotoxicity of 70% or more and less than 90%)","5 (herbicidal effect of not less than 90%, or phytotoxicity of 90% or more)","3 (herbicidal effect of not less than 50% and less than 70%, or phytotoxicity of 50% or more and less than 70%)",,,,,,
CNC(=O)C(Cn1cc(C)c(-c2ccccc2C)n1)=NOC [Compound 35],"0 (herbicidal effect of not less than 0% and less than 10%, or phytotoxicity of 0% or more and less than 10%)","4 (herbicidal effect of not less than 70% and less than 90%, or phytotoxicity of 70% or more and less than 90%)","4 (herbicidal effect of not less than 70% and less than 90%, or phytotoxicity of 70% or more and less than 90%)","4 (herbicidal effect of not less than 70% and less than 90%, or phytotoxicity of 70% or more and less than 90%)","5 (herbicidal effect of not less than 90%, or phytotoxicity of 90% or more)",,,,,,
CNC(=O)C(Cn1cc(C)c(-c2ccc(C(C)C)cc2)n1)=NOC [Compound 38],"0 (herbicidal effect of not less than 0% and less than 10%, or phytotoxicity of 0% or more and less than 10%)","5 (herbicidal effect of not less than 90%, or phytotoxicity of 90% or more)","5 (herbicidal effect of not less than 90%, or phytotoxicity of 90% or more)","5 (herbicidal effect of not less than 90%, or phytotoxicity of 90% or more)","5 (herbicidal effect of not less than 90%, or phytotoxicity of 90% or more)",,,,,,
CNC(=O)C(Cn1cc(C)c(-c2ccc(C(F)(F)F)cc2)n1)=NOC [Compound 40],"0 (herbicidal effect of not less than 0% and less than 10%, or phytotoxicity of 0% or more and less than 10%)","5 (herbicidal effect of not less than 90%, or phytotoxicity of 90% or more)","5 (herbicidal effect of not less than 90%, or phytotoxicity of 90% or more)","5 (herbicidal effect of not less than 90%, or phytotoxicity of 90% or more)","5 (herbicidal effect of not less than 90%, or phytotoxicity of 90% or more)",,,,,,
CNC(=O)C(Cn1cc(C)c(-c2cccc(Br)c2)n1)=NOC [Compound 49],"1 (herbicidal effect of not less than 10% and less than 30%, or phytotoxicity of 10% or more and less than 30%)","5 (herbicidal effect of not less than 90%, or phytotoxicity of 90% or more)","5 (herbicidal effect of not less than 90%, or phytotoxicity of 90% or more)","5 (herbicidal effect of not less than 90%, or phytotoxicity of 90% or more)","5 (herbicidal effect of not less than 90%, or phytotoxicity of 90% or more)",,,,,,
"CNC(=O)C(Cn1cc(C)c(-c2c(F)cccc2F)n1)=NOC [Compound 58, 2-methoxyimino-3-((2′,6′-difluorophenyl)-4-methyl-pyrazole)-1-yl-propanoic acid-N-methylamide]",,,,,,"1 (herbicidal effect of not less than 10% and less than 30%, or phytotoxicity of 10% or more and less than 30%)","5 (herbicidal effect of not less than 90%, or phytotoxicity of 90% or more)","5 (herbicidal effect of not less than 90%, or phytotoxicity of 90% or more)","5 (herbicidal effect of not less than 90%, or phytotoxicity of 90% or more)","5 (herbicidal effect of not less than 90%, or phytotoxicity of 90% or more)",
CNC(=O)C(Cn1cc(C)c(-c2cc(F)cc(F)c2)n1)=NOC [Compound 60],,,,,,"0 (herbicidal effect of not less than 0% and less than 10%, or phytotoxicity of 0% or more and less than 10%)","5 (herbicidal effect of not less than 90%, or phytotoxicity of 90% or more)","5 (herbicidal effect of not less than 90%, or phytotoxicity of 90% or more)","5 (herbicidal effect of not less than 90%, or phytotoxicity of 90% or more)","5 (herbicidal effect of not less than 90%, or phytotoxicity of 90% or more)",
CNC(=O)C(Cn1cc(C)c(-c2cc(Cl)ccc2Cl)n1)=NOC [Compound 73],,,,,,"0 (herbicidal effect of not less than 0% and less than 10%, or phytotoxicity of 0% or more and less than 10%)","4 (herbicidal effect of not less than 70% and less than 90%, or phytotoxicity of 70% or more and less than 90%)","4 (herbicidal effect of not less than 70% and less than 90%, or phytotoxicity of 70% or more and less than 90%)","5 (herbicidal effect of not less than 90%, or phytotoxicity of 90% or more)","5 (herbicidal effect of not less than 90%, or phytotoxicity of 90% or more)",
CNC(=O)C(Cn1cc(C)c(-c2ccc(OC)c(F)c2)n1)=NOC [Compound 76],,,,,,"0 (herbicidal effect of not less than 0% and less than 10%, or phytotoxicity of 0% or more and less than 10%)","5 (herbicidal effect of not less than 90%, or phytotoxicity of 90% or more)","5 (herbicidal effect of not less than 90%, or phytotoxicity of 90% or more)","5 (herbicidal effect of not less than 90%, or phytotoxicity of 90% or more)","5 (herbicidal effect of not less than 90%, or phytotoxicity of 90% or more)",
CNC(=O)C(Cn1cc(C)c(-c2ccc(C(F)(F)F)cc2F)n1)=NOC [Compound 85],,,,,,,,,,,"Herbicidal activity SM: Stellaria media [6]: 5 (herbicidal effect of not less than 90%, or phytotoxicity of 90% or more); Herbicidal activity CA: Chenopodium album [7]: 5 (herbicidal effect of not less than 90%, or phytotoxicity of 90% or more); Herbicidal activity SV: Setaria viridis [8]: 4 (herbicidal effect of not less than 70% and less than 90%, or phytotoxicity of 70% or more and less than 90%); Herbicidal activity DA: Digitaria adscendens [9]: 4 (herbicidal effect of not less than 70% and less than 90%, or phytotoxicity of 70% or more and less than 90%); Herbicidal activity (phytotoxicity) TA: Wheat (Triticum aestivum) [10]: 0 (herbicidal effect of not less than 0% and less than 10%, or phytotoxicity of 0% or more and less than 10%); Herbicidal activity (phytotoxicity) GM: Soybean (Glycine max) [11]: 0 (herbicidal effect of not less than 0% and less than 10%, or phytotoxicity of 0% or more and less than 10%)"
CNC(=O)C(Cn1cc(C)c(-c2ccc(C(F)(F)F)c(F)c2)n1)=NOC [Compound 87],,,,,,"0 (herbicidal effect of not less than 0% and less than 10%, or phytotoxicity of 0% or more and less than 10%)","5 (herbicidal effect of not less than 90%, or phytotoxicity of 90% or more)","5 (herbicidal effect of not less than 90%, or phytotoxicity of 90% or more)","5 (herbicidal effect of not less than 90%, or phytotoxicity of 90% or more)","5 (herbicidal effect of not less than 90%, or phytotoxicity of 90% or more)",

# Reference: patent publication US7192906B2, “Substituted pyrazole derivatives, production process thereof, and herbicide compositions containing the derivatives” (SDS Biotech K.K., priority 2001, dated 2007)
